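Cultured in 96-well plates, cells were exposed to test compound for 48 hours across five concentrations. GI50 = concentration required for 50% inhibition of growth.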 Calls of active or inactive are those of the source. Rule as the data show it: active = GI50 up to about 1.1 µM and inactive = higher.
Legend:
Test in all cases: inhibition of tumour cell growth, NCI panel, 48 h
[1] = tested on: A549
[2] = tested on: MDA-MB-231
[3] = tested on: TK-10
[4] = tested on: 786-0
[5] = tested on: HL-60
[6] = tested on: SNB-19
[7] = tested on: PC-3
[8] = tested on: HT-29
[9] = tested on: SN12C
[10] = tested on: NCI-H522
[11] = tested on: HOP-62
[12] = tested on: OVCAR-8
[13] = tested on: RPMI-8226
[14] = tested on: MCF7
[15] = tested on: UO-31
[16] = tested on: SK-OV-3
[17] = tested on: SK-MEL-2
[18] = tested on: OVCAR-5
[19] = tested on: M14

Measured: GI50

COc1ccc(C2CC(=O)Oc3ccccc3O2)cc1 (centres undefined)
inactive: [1] > 100 µM | [2] > 100 µM | [3] > 100 µM | [4] > 100 µM | [5] 42.8 µM | [6] > 100 µM | [7] > 100 µM | [8] > 100 µM | [9] > 100 µM | [10] 32.1 µM | [11] > 100 µM | [12] > 100 µM | [13] > 100 µM | [14] > 100 µM | [15] 88.5 µM | [16] > 100 µM

C[n+]1c2ccccc2c2/c(=C\C#N)c3ccccc3n21
inactive: [17] 3.49 µM | [18] 5.78 µM | [1] 6.92 µM | [2] 4.43 µM | [3] 1.69 µM | [19] 4.15 µM | [4] 3.5 µM | [5] 3.85 µM | [6] 5.24 µM | [7] 2.86 µM | [8] 3.82 µM | [9] 3.42 µM | [11] 2.84 µM | [12] 3.52 µM | [13] 3.28 µM | [14] 2.16 µM | [15] 12.6 µM | [16] 3.88 µM

CN(C)CC(O)CNC(=O)Nc1ccccc1 (centres undefined)
inactive: [17] > 100 µM | [18] > 100 µM | [1] > 100 µM | [2] > 100 µM | [3] > 100 µM | [19] > 100 µM | [4] > 100 µM | [5] > 100 µM | [6] > 100 µM | [7] > 100 µM | [8] > 100 µM | [9] > 100 µM | [11] > 100 µM | [12] > 100 µM | [13] > 100 µM | [14] > 100 µM | [15] > 100 µM | [16] > 100 µM

CC(=O)c1cc2c(Br)cccc2oc1=O
inactive: [17] > 100 µM | [18] > 100 µM | [1] > 100 µM | [2] > 100 µM | [3] > 100 µM | [19] > 100 µM | [4] > 100 µM | [5] > 100 µM | [6] > 100 µM | [7] > 100 µM | [8] > 100 µM | [9] > 100 µM | [10] > 100 µM | [11] > 100 µM | [12] > 100 µM | [13] > 100 µM | [14] > 100 µM

CC/C(=C\c1ccc(Cl)c(Cl)c1)[N+](=O)[O-]
inactive: [17] 2.28 µM | [18] 2.06 µM | [1] 2.1 µM | [2] 2.53 µM | [3] 1.94 µM | [19] 1.45 µM | [4] 1.59 µM | [5] 1.18 µM | [6] 2.36 µM | [7] 2.23 µM | [8] 3.4 µM | [9] 2.09 µM | [10] 1.72 µM | [11] 2.96 µM | [12] 1.68 µM | [13] 1.92 µM | [14] 1.15 µM | [15] 1.88 µM

CC1(O)CC(C(F)(F)F)(C(F)(F)F)OC1=O (centres undefined)
inactive: [18] > 10 µM | [1] > 10 µM | [2] > 10 µM | [3] > 10 µM | [19] > 10 µM | [4] > 10 µM | [6] > 10 µM | [7] > 10 µM | [8] > 10 µM | [9] > 10 µM | [10] > 10 µM | [11] > 10 µM | [12] > 10 µM | [13] > 10 µM | [14] > 10 µM | [15] > 10 µM | [16] > 10 µM

Reference: ChEMBL document CHEMBL1201862, “PubChem BioAssay data set” (2004)
